Test results as given in US4305954A, “Antiinflammatory 3,4-dihydro(or 1,4-dihydro)-2-[(substituted)thio]-[1]benzopyrano[3,4-d]imidazoles and their corresponding sulfoxides and sulfones” (E. I. Du Pont de Nemours and Company, priority 1981, dated 1981).
Where two headings read alike, the source gives them in different places.

System: adjuvant-induced arthritis in rats
Assay: Established adjuvant-induced arthritis in rats
Type: in vivo, rat (Charles River Lewis male rats)
Details: for ED50: Rattus norvegicus, 24 h, read-out: Adjuvant Arthritis ED50; for % reduction at the indicated dose (paw volume, Adjuvant Arthritis): 9 mg/kg
[1] = oral by gavage, 7 daily doses, ED50% decrease from control paw volume (uninjected left hind paw), read one day after last dose

Compound | ED50 (po) | ED50 [1] | % reduction at the indicated dose (paw volume, Adjuvant Arthritis) (oral by gavage, 7 daily doses)
CC(=O)Oc1ccccc1C(=O)O [Aspirin, aspirin, reference compound] | 305 mg/kg |  | 
FC(F)C(F)(F)Sc1nc2c([nH]1)COc1cc(Cl)c(Cl)cc1-2 [Example 1, 7,8-Dichloro-3,4-dihydro(or 1,4-dihydro)-2-[(1,1,2,2-tetrafluoroethyl)-thio]-[1]benzopyrano[3,4-d]imidazole] |  | 8.2 mg/kg | 
O=S(=O)(c1nc2c([nH]1)COc1cc(Cl)c(Cl)cc1-2)C(F)(F)C(F)F [Example 2, 7,8-Dichloro-3,4-dihydro(or 1,4-dihydro)-2-[(1,1,2,2-tetrafluoroethyl)sulfonyl]-[1]benzopyrano[3,4-d]imidazole] |  | 3.1 mg/kg | 
FC(F)C(F)(F)Sc1nc2c([nH]1)COc1ccc(Cl)cc1-2 [Example 4] |  | > 9 mg/kg | 30%
Fc1ccc2c(c1)OCc1[nH]c(SC(F)(F)C(F)F)nc1-2 [Example 5] |  | 50 mg/kg | 
O=S(=O)(c1nc2c([nH]1)COc1cc(F)ccc1-2)C(F)(F)C(F)F [Example 6] |  | > 9 mg/kg | 22%
CC(C)Cc1ccc(C(C)C(=O)O)cc1 (centres unmarked) [Ibuprofen, ibuprofen, reference compound] |  | 100 mg/kg | 
COc1ccc2c(c1)c(CC(=O)O)c(C)n2C(=O)c1ccc(Cl)cc1 [Indomethacin, indomethacin, reference compound] | 0.3 mg/kg |  | 
CCCCC1C(=O)N(c2ccccc2)N(c2ccccc2)C1=O [Phenylbutazone, phenylbutazone, reference compound] |  | 10 mg/kg | 
